The text below walks through data of US20250019387A1 (Frontier Medicines Corporation, priority 0001, published 2025).

pIC50: −log10 of the molar value. Read-outs that look alike come from different tables or passages of the source.

By pIC50 is commonly meant the IC50 on a negative log10 scale, so that one unit is a factor of ten.

The assay has as its target KRAS G12C and cRAF (Ras-binding domain) interaction (Homo sapiens (Human), UniProt P01116, C118S/C51S/C80L/G12C). Description: Inhibition of KRAS G12C and cRAF binding (AlphaScreen). In short, it runs like this:
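IC50 values come from 4-parameter nonlinear regression of AlphaScreen signal (680 nm excitation, 570 nm emission). Compound plates sat 19-20 h at room temperature before RBD and donor/acceptor beads were added in Hepes pH 7.4 buffer with 150 mM NaCl, 5 mM MgCl2, 2% DMSO for 60-90 min; biotin-AviTag-GST replaced RBD to flag assay-technology interferers.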

Setting [1] is: GMPPNP-loaded KRAS G12C, 19-20 hours incubation with compound, read-out: IC50 (Inhibition of KRAS G12C and cRAF Binding).
[2] abbreviates: additional exemplary compounds, KRAS G12C and cRAF binding, read-out: RAF1 RBD IC50.

Chain of KRAS G12C and cRAF (Ras-binding domain) interaction (P01116 other isoform, or with tags, fused parts or gaps G12C/C51S/C80L/C118S): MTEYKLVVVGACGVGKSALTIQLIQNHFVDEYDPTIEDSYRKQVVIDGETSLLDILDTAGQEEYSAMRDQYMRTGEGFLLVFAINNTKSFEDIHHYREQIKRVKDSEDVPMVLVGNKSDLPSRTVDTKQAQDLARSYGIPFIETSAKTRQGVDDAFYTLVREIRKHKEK

For `C#Cc1c(F)ccc2cccc(-c3ncc4c(N(C)[C@@H]5CCN(C(=O)/C=C/CN6C[C@@H]7C[C@H]6CO7)C5)nc(OC[C@@]56CCCN5C[C@H](F)C6)nc4c3F)c12` [Example 291, (E)-4-((1S,4S)-2-oxa-5-azabicyclo[2.2.1]heptan-5-yl)-1-((R)-3-((7-(8-ethynyl-7-fluoronaphthalen-1-yl)-8-fluoro-2-(((2R,7aS)-2-fluorotetrahydro-1H-pyrrolizin-7a(5H)-yl)methoxy)pyrido[4,3-d]pyrimidin-4-yl)(methyl)amino)pyrrolidin-1-yl)but-2-en-1-one], under setting [1], the negative-log IC50 (pIC50) was more than 8.00.

For `CN(c1nc(OC[C@@]23CCCN2C[C@H](F)C3)nc2c(F)c(-c3cccc4ccc(F)c(Cl)c34)ncc12)[C@@H]1CCN(C(=O)C#CCN2CC(F)(F)C2)C1` [Example 209, 1-((R)-3-((7-(8-chloro-7-fluoronaphthalen-1-yl)-8-fluoro-2-(((2R,7aS)-2-fluorohexahydro-1H-pyrrolizin-7a-yl)methoxy)pyrido[4,3-d]pyrimidin-4-yl)(methyl)amino)pyrrolidin-1-yl)-4-(3,3-difluoroazetidin-1-yl)but-2-yn-1-one], the pIC50 under setting [1] is 7.00 to 8.00.

As for `C=CC(=O)N1CC[C@@H](O)[C@H](N(C)c2nc(OC[C@@]34CCCN3C[C@H](F)C4)nc3c(F)c(-c4cccc5cccc(Cl)c45)ncc23)C1`, the pIC50 under setting [2] is less than 6.30.

As for `CN(CC1CN(C(=O)/C=C/[C@@H]2CCN2C)C1)c1nc(OC[C@@]23CCCN2C[C@H](F)C3)nc2c(F)c(-c3cccc4cccc(Cl)c34)ncc12` [Example 218, (E)-1-(3-(((7-(8-chloronaphthalen-1-yl)-8-fluoro-2-(((2R,7aS)-2-fluorotetrahydro-1H-pyrrolizin-7a(5H)-yl)methoxy)pyrido[4,3-d]pyrimidin-4-yl)(methyl)amino)methyl)azetidin-1-yl)-3-((S)-1-methylazetidin-2-yl)prop-2-en-1-one], under setting [1], the pIC50 is 7.00 to 8.00.

For `CN(c1nc(OC[C@@]23CCCN2C[C@H](F)C3)nc2c(F)c(-c3cccc4ccc(F)c(Cl)c34)ncc12)[C@@H]1CCN(C(=O)/C=C/C2COCCN2)C1` (stereo partly drawn) [Example 123, (E)-1-((R)-3-((7-(8-chloro-7-fluoronaphthalen-1-yl)-8-fluoro-2-(((2R,7aS)-2-fluorotetrahydro-1H-pyrrolizin-7a(5H)-yl)methoxy)pyrido[4,3-d]pyrimidin-4-yl)(methyl)amino)pyrrolidin-1-yl)-3-(morpholin-3-yl)prop-2-en-1-one], under setting [1], the pIC50 was 6.30 to 7.00.

For the compound `C=CC(=O)N1CC[C@@H](N(C)c2nc(OCC34CCCN3CCC4)nc3c(F)c(-c4cccc5ccc(F)c(Cl)c45)ncc23)C1`, the pIC50 under setting [2] was 7.00 to 8.00.

As to `C[C@@H](F)c1noc(/C=C/C(=O)N2CC[C@@H](N(C)c3nc(OC[C@@]45CCCN4C[C@H](F)C5)nc4c(F)c(-c5cccc6cccc(Cl)c56)ncc34)C2)n1` [Example 84, (E)-1-((R)-3-((7-(8-chloronaphthalen-1-yl)-8-fluoro-2-(((2R,7aS)-2-fluorotetrahydro-1H-pyrrolizin-7a(5H)-yl)methoxy)pyrido[4,3-d]pyrimidin-4-yl)(methyl)amino)pyrrolidin-1-yl)-3-(3-((R)-1-fluoroethyl)-1,2,4-oxadiazol-5-yl)prop-2-en-1-one], under setting [1], the negative logarithm of the IC50 (pIC50) is more than 8.00.

For `CC(C)c1noc(/C=C/C(=O)N2CC[C@@H](N(C)c3nc(OC[C@@]45CCCN4C[C@H](F)C5)nc4c3CCN(c3cccc5ccc(F)c(Cl)c35)C4)C2)n1` [Example 99, (E)-1-((R)-3-((7-(8-chloro-7-fluoronaphthalen-1-yl)-2-(((2R,7aS)-2-fluorohexahydro-1H-pyrrolizin-7a-yl)methoxy)-5,6,7,8-tetrahydropyrido[3,4-d]pyrimidin-4-yl)(methyl)amino)pyrrolidin-1-yl)-3-(3-isopropyl-1,2,4-oxadiazol-5-yl)prop-2-en-1-one], the pIC50 under setting [1] was 7.00 to 8.00.

As for `Cc1cc(/C=C/C(=O)N2CCC[C@@H](N(C)c3nc(OC[C@@]45CCCN4C[C@H](F)C5)nc4c(F)c(-c5cccc6cccc(Cl)c56)ncc34)C2)nc(C)n1`, the pIC50 under setting [2] is less than 6.30.

Take `C=CS(=O)(=O)C1CN(c2nc(OC[C@@H]3CCCN3C)nc3c2CCN(c2cccc4cccc(Cl)c24)C3)C1` [Example 50, (S)-7-(8-chloronaphthalen-1-yl)-2-((1-methylpyrrolidin-2-yl)methoxy)-4-(3-(vinylsulfonyl)azetidin-1-yl)-5,6,7,8-tetrahydropyrido[3,4-d]pyrimidine]: the pIC50 under setting [1] was less than 6.30.

`CCN(CC)C/C=C/S(=O)(=O)CCN(C)c1nc(OC[C@@H]2CCCN2C)nc2c(F)c(-c3cccc4cccc(Cl)c34)ncc12`: the pIC50 under setting [2] was 7.00 to 8.00.

With `C=CC(=O)N1CC[C@H](Nc2nc(OC[C@@]34CCCN3C[C@H](F)C4)nc3c(F)c(-c4cccc5cccc(Cl)c45)ncc23)C1`, the negative-log IC50 (pIC50) under setting [2] was less than 6.30.

For the compound `CN(c1nc(OCC23CCCN2CCC3)nc2c(F)c(-c3cccc4ccc(F)c(Cl)c34)ncc12)[C@@H]1CCN(C#N)C1`, the pIC50 under setting [2] was 7.00 to 8.00.

Regarding `CN1CCOCC1C#CC(=O)N1CC[C@@H](N(C)c2nc(OC[C@@]34CCCN3C[C@H](F)C4)nc3c(F)c(-c4cccc5cccc(Cl)c45)ncc23)C1` (stereo partly drawn) [Example 188, 1-((R)-3-((7-(8-chloronaphthalen-1-yl)-8-fluoro-2-(((2R,7aS)-2-fluorohexahydro-1H-pyrrolizin-7a-yl)methoxy)pyrido[4,3-d]pyrimidin-4-yl)(methyl)amino)pyrrolidin-1-yl)-3-(4-methylmorpholin-3-yl)prop-2-yn-1-one], the pIC50 under setting [1] was 6.30 to 7.00.

`CC(C)OC(=O)/C=C/C(=O)N1CC[C@@H](N(C)c2nc(OCC34CCCN3CCC4)nc3c2CCN(c2cccc4cccc(Cl)c24)C3)C1` [Example 18, isopropyl(R,E)-4-(3-((7-(8-chloronaphthalen-1-yl)-2-((tetrahydro-1H-pyrrolizin-7a(5H)-yl)methoxy)-5,6,7,8-tetrahydropyrido[3,4-d]pyrimidin-4-yl)(methyl)amino)pyrrolidin-1-yl)-4-oxobut-2-enoate]: the pIC50 under setting [1] was more than 8.00.

With `Cc1cc(/C=C/C(=O)N2CC(CN(C)c3nc(OC[C@@]45CCCN4C[C@H](F)C5)nc4c(F)c(-c5cccc6ccc(F)c(Cl)c56)ncc34)C2)nc(C)n1` [Example 273, (E)-1-(3-(((7-(8-chloro-7-fluoronaphthalen-1-yl)-8-fluoro-2-(((2R,7aS)-2-fluorotetrahydro-1H-pyrrolizin-7a(5H)-yl)methoxy)pyrido[4,3-d]pyrimidin-4-yl)(methyl)amino)methyl)azetidin-1-yl)-3-(2,6-dimethylpyrimidin-4-yl)prop-2-en-1-one], the pIC50 under setting [1] is 6.30 to 7.00.

Turning to `COC(=O)/C=C/C(=O)N1CCC(N(C)c2nc(OC[C@@H]3CCCN3C)nc3c2CCN(c2cccc4ccc(F)c(Cl)c24)C3)C1` (stereo partly drawn) [Example 2, methyl(E)-4-(3-((7-(8-chloro-7-fluoronaphthalen-1-yl)-2-(((S)-1-methylpyrrolidin-2-yl)methoxy)-5,6,7,8-tetrahydropyrido[3,4-d]pyrimidin-4-yl)(methyl)amino)pyrrolidin-1-yl)-4-oxobut-2-enoate], the negative logarithm of the IC50 (pIC50) under setting [1] was 7.00 to 8.00.

As to `Cc1nccc(/C=C/C(=O)N2CCC(N(C)c3nc(OC[C@@]45CCCN4C[C@H](F)C5)nc4c(F)c(-c5cccc6cccc(Cl)c56)ncc34)CC2)n1`, under setting [2], the pIC50 was less than 6.30.

With `CN(c1nc(OC[C@@]23CCCN2C[C@H](F)C3)nc2c(F)c(-c3cccc4cccc(Cl)c34)ncc12)[C@@H]1CCN(C(=O)C#CCN2CCOCC2)C1` [Example 92, 1-((R)-3-((7-(8-chloronaphthalen-1-yl)-8-fluoro-2-(((2R,7aS)-2-fluorohexahydro-1H-pyrrolizin-7a-yl)methoxy)pyrido[4,3-d]pyrimidin-4-yl)(methyl)amino)pyrrolidin-1-yl)-4-morpholinobut-2-yn-1-one], the pIC50 under setting [1] is less than 6.30.

As for `C=CS(=O)(=O)[C@H]1CC[C@@H](N(C)c2nc(OCC34CCCN3CCC4)nc3c2CCN(c2cccc4cccc(Cl)c24)C3)C1`, the negative-log IC50 (pIC50) under setting [2] was 7.00 to 8.00.

As for `CN(c1nc(OC[C@@]23CCCN2C[C@H](F)C3)nc2c(F)c(-c3cccc4cccc(Cl)c34)ncc12)[C@@H]1CN(C(=O)/C=C/c2nc(C(C)(C)O)no2)C[C@H]1F` [Example 217, (E)-1-((3R,4R)-3-((7-(8-chloronaphthalen-1-yl)-8-fluoro-2-(((2R,7aS)-2-fluorotetrahydro-1H-pyrrolizin-7a(5H)-yl)methoxy)pyrido[4,3-d]pyrimidin-4-yl)(methyl)amino)-4-fluoropyrrolidin-1-yl)-3-(3-(2-hydroxypropan-2-yl)-1,2,4-oxadiazol-5-yl)prop-2-en-1-one], under setting [1], the pIC50 is less than 6.30.

Regarding `Cc1nsc(/C=C/C(=O)N2CC[C@@H](N(C)c3nc(OC[C@@]45CCCN4C[C@H](F)C5)nc4c(F)c(-c5cccc6cccc(Cl)c56)ncc34)C2)n1` [Example 75, (E)-1-((R)-3-((7-(8-chloronaphthalen-1-yl)-8-fluoro-2-(((2R,7aS)-2-fluorotetrahydro-1H-pyrrolizin-7a(5H)-yl)methoxy)pyrido[4,3-d]pyrimidin-4-yl)(methyl)amino)pyrrolidin-1-yl)-3-(3-methyl-1,2,4-thiadiazol-5-yl)prop-2-en-1-one], the pIC50 under setting [1] is 7.00 to 8.00.

Consider `CN(c1nc(OC[C@@]23CCCN2C[C@H](F)C3)nc2c(F)c(-c3cccc4ccc(F)c(Cl)c34)ncc12)[C@@H]1CCN(C(=O)/C=C/c2nc(C(C)(C)O)no2)C1` [Example 88, (E)-1-((R)-3-((7-(8-chloro-7-fluoronaphthalen-1-yl)-8-fluoro-2-(((2R,7aS)-2-fluorotetrahydro-1H-pyrrolizin-7a(5H)-yl)methoxy)pyrido[4,3-d]pyrimidin-4-yl)(methyl)amino)pyrrolidin-1-yl)-3-(3-(2-hydroxypropan-2-yl)-1,2,4-oxadiazol-5-yl)prop-2-en-1-one], for which, under setting [1], the pIC50 is more than 8.00.

As for `C=CS(=O)(=O)[C@@H]1CC[C@H](N(C)c2nc(OCC34CCCN3CCC4)nc3c2CCN(c2cccc4cccc(Cl)c24)C3)C1`, the pIC50 under setting [2] was less than 6.30.
